# Reference: patent US6911542B2, “Pyrazino[1′,2′:1,6]pyrido[3,4b]indole derivatives” (Lilly Icos LLC., priority 2000, dated 2005)
# Molecular target: T1, PDE5 obtained from bovine aorta (Bos taurus, UniProt Q28156)
# T1 construct: from tissue; host or cells: bovine aorta
# Assay: cGMP-PDE inhibition assay using PDE5 obtained from bovine aorta
# Format: biochemical
# Settings: read-out: PDE5 IC50 (Bov. aorta)
# Protocol: (§1) cGMP-PDE activity of compounds of the present invention was measured using a one-step assay adapted from Wells et al., Biochim. Biophys. Acta, 384, 430 (1975). The reaction medium contained 50 mM Tris-HCl, pH 7.5, 5 mM magnesium acetate, 250 μg/ml 5′-Nucleotidase, 1 mM EGTA, and 0.15 μM 8-[H^3]-cGMP. Unless otherwise indicated, the enzyme used was a human recombinant PDE5 (ICOS Corp., Bothell, Wash.).
# (§2) Compounds of the invention were dissolved in DMSO finally present at 2% in the assay.
row,Compound,IC50 [µM]
1,COc1ccc([C@@H]2c3[nH]c4ccccc4c3C[C@@H]3C(=O)N(CCN(C)C)CC(=O)N23)cc1 [Example 9],0.07
2,O=C1[C@H]2Cc3c([nH]c4ccccc34)[C@@H](c3ccc4c(c3)OCO4)N2C(=O)CN1CCO [Example 10],0.005
3,COc1ccc([C@@H]2c3[nH]c4ccccc4c3C[C@@H]3C(=O)N(CCCN(C)C)CC(=O)N23)cc1 [Example 11],0.65

# Other lines, results leading:
row,IC50 [µM],Compound
1,0.1,COc1ccc([C@@H]2c3[nH]c4ccccc4c3C[C@@H]3C(=O)N(CCCN4CCN(C)CC4)CC(=O)N23)cc1 [Example 12]
2,0.004,COC(=O)CN1CC(=O)N2[C@H](c3ccc4c(c3)OCO4)c3[nH]c4ccccc4c3C[C@@H]2C1=O [Example 19]
3,0.01,NC(=O)CN1CC(=O)N2[C@H](c3ccc4c(c3)OCO4)c3[nH]c4ccccc4c3C[C@@H]2C1=O [Example 20]

# Tested on: not given
# Assay: not given
# Settings: not given
row,melting point,Compound
1,276 to 283 °C (dec.),"O=C1[C@H]2Cc3c([nH]c4ccccc34)[C@@H](c3ccc4c(c3)OCO4)N2C(=O)CN1O [Example 2, (6R,12aR)-6-Benzo[1,3]dioxo-5-yl-2-hydroxy-2,3,6,7,12,12a-hexahydropyrazino[1′,2′:1,6]-pyrido[3,4-b]indole-1,4-dione]"

# Molecular target: T2, human recombinant PDE5 (Homo sapiens, UniProt O76074)
# T2 construct: host or cells: Saccharomyces cerevisiae, protease-deficient strain BJ2-54 (ATCC 74465)
# Assay: cGMP-PDE one-step inhibition assay, human recombinant PDE5
# Format: biochemical
# Settings: 0.15 μM 8-[H3]-cGMP, 30 min incubation
# Protocol: The compounds of structural formula (I) were tested for an ability to inhibit PDE5. The ability of a compound to inhibit PDE5 activity is related to the IC50 value for the compound, i.e., the concentration of inhibitor required for 50% inhibition of enzyme activity. The IC50 value for compounds of structural formula (I) were determined using recombinant human PDE5.
# The production of recombinant human PDEs and the IC50 determinations can be accomplished by well-known methods in the art. Exemplary methods are described as follows:
# Recombinant production of human PDE1B, PDE2, PDE4A, PDE4B, PDE4C, PDE4D, PDE5, and PDE7 was carried out similarly to that described in Example 7 of U.S. Pat. No. 5,702,936, incorporated herein by reference, except that the yeast transformation vector employed, which is derived from the basic ADH2 plasmid described in Price et al., Methods in Enzymology, 185, pp. 308-318 (1990), incorporated yeast ADH2 promoter and terminator sequences and the Saccharomyces cerevisiae host was the protease-deficient strain BJ2-54 deposited on Aug. 31, 1998 with the American Type Culture Collection, Manassas, Va., under accession number ATCC 74465. Transformed host cells were grown in 2×SC-leu medium, pH 6.2, with trace metals, and vitamins. After 24 hours, YEP medium-containing glycerol was added to a final concentration of 2×YET/3% glycerol. Approximately 24 hr later, cells were harvested, washed, and stored at −70° C. […]
# Cell pellets (29 g) were thawed on ice with an equal volume of Lysis Buffer (25 mM Tris HCl, pH 8, 5 mM MgCl2, 0.25 mM DTT, 1 mM benzamidine, and 10 μM ZnSO4). Cells were lysed in a Microfluidizer® (Microfluidics Corp.) using nitrogen at 20,000 psi. The lysate was centrifuged and filtered through 0.45 μm disposable filters. The filtrate was applied to a 150 mL column of Q SEPHAROSE® Fast-Flow (Pharmacia). The column was washed with 1.5 volumes of Buffer A (20 mM Bis-Tris Propane, pH 6.8, 1 mM MgCl2, 0.25 mM DTT, 10 μM ZnSO4) and eluted with a step gradient of 125 mM NaCl in Buffer A followed by a linear gradient of 125-1000 mM NaCl in Buffer A. Active fractions from the linear gradient were applied to a 180 mL hydroxyapatite column in Buffer B (20 mM Bis-Tris Propane (pH 6.8), 1 mM MgCl2, 0.25 mM DTT, 10 μM ZnSO4, and 250 mM KCl). After loading, the column was washed with 2 volumes of Buffer B and eluted with a linear gradient of 0-125 mM potassium phosphate in Buffer B. Active fractions were pooled, precipitated with 60% ammonium sulfate, and resuspended in Buffer C (20 mM Bis-Tris Propane, pH 6.8, 125 mM NaCl, 0.5 mM DTT, and 10 μM ZnSO4). The pool was applied to a 140 mL column of […]® S-300 HR and eluted with Buffer C. Active fractions were diluted to 50% glycerol and stored at −20° C.
# as §1, §2
row,IC50 [µM],Compound
1,0.0075,"O=C1[C@H]2Cc3c([nH]c4ccccc34)[C@@H](c3ccc4c(c3)OCO4)N2C(=O)CN1O [Example 2, (6R,12aR)-6-Benzo[1,3]dioxo-5-yl-2-hydroxy-2,3,6,7,12,12a-hexahydropyrazino[1′,2′:1,6]-pyrido[3,4-b]indole-1,4-dione]"
2,0.11,CCCCCCCCOC(=O)CN1CC(=O)N2[C@H](c3ccc4c(c3)OCO4)c3[nH]c4ccccc4c3C[C@@H]2C1=O [Example 88]
